Tested on: kultivierte Zellen aus der Nasenschleimhaut
Experiment: Proliferation of cultured nasal mucosa (epithelial) cells
Assay type: cell-based, Mensch
Settings: treatment with 1,8-Cineol (Figur 2B)
Excerpt: Material und Methoden: Die Anmelderin hat Gewebeproben aus Nasenpolypen und unteren Nasenmuscheln von Patienten mit CRSwNP (chronischer Rhinosinusitis mit Nasenpolypen) und aus unteren Nasenmuscheln von Probanden ohne chronische Sinusitis (gesunde Schleimhaut) auf Basis von immunohistochemischen Methoden und Immunoblot-Verfahren untersucht. Die zelluläre Proliferation und Migration wurden unter Einsatz des xCELLigence Real Time Cell Analyzer untersucht.
Die Zellproliferation wurde mittels eines quantitativen kolorimetrischen 3-(4,5-Dimethylthiazol 2-yl)-2,5-diphenyltetrazoliumbromid-basierten (MTT) Zelltests bestimmt. Dieser Test bestimmt die Anzahl an lebensfähigen Zellen auf Basis der mitochondrialen Umwandlung von MTT.
Die Proliferation wurde mittels eines MTT-Tests von Sigma-Aldrich ("In Vitro Toxicology Assay Kit") entsprechend den Instruktionen des Herstellers ermittelt.
Im Vergleich zur gesunden Nasenschleimhaut weisen Nasenpolypen eine andere Morphologie auf, was anhand von immunohistochemischen Färbungen mit Hämatoxylin-Eosin (HE) an gefrorenen Gewebeschnitten gezeigt werden konnte (Figur 1). Mit dieser Färbemethode werden basophile Strukturen mit Blau-Lila und eosinophile Strukturen mit hellem Pink angefärbt, wohingegen hydrophobe Strukturen, wie die Membranen des Golgi-Apparats, ungefärbt bzw. klar bleiben. […]

CC12CCC(CC1)C(C)(C)O2 [1,8-Cineol, 1,3,3-Trimethyl-2-oxabicyclo[2.2.2]octan]
Proliferation kultivierter Zellen aus der Nasenschleimhaut: nicht beeinflusst

Source: EP3325012B1, “CINEOLE-CONTAINING COMPOSITION FOR TREATING NOSE POLYPS” (Maria Clementine Martin Klosterfrau Vertriebsgesellschaft …, priority 2015, dated 2017)
